# Test results taken from patent US4205076A, “Lipogenesis inhibition by certain esters of substituted benzodioxincarboxylic acids” (Shell Oil Company, priority 1979, dated 1980).
# Test system: swine adipose tissue
# Assay: Inhibition of lipogenesis (incorporation of radioactive carbon from glucose-U-14C into lipid) in swine adipose tissue slices
# Type: cell-based
# Settings: 100 micrograms per milliliter, 37° C., 2 hours, insulin, 5% DMSO, in triplicate
# Description: The manner in which they cause this effect is not known with certainty; it is believed that they interfere with the synthesis of fatty acids in the tissues. Their effectiveness for this purpose has been ascertained by immersing samples of swine adipose tissue in a liquid medium containing radioactive glucose and the test chemical for a period of time, then isolating the lipid from the treated tissue and determining the incorporation of the radioactive carbon into lipid by means of scintillation counting techniques. These tests were conducted in swine adipose tissues because in swine, the primary site of lipogenesis--i.e., fatty acid synthesis--appears to be adipose tissue.
# Described in more detail, tests were conducted according to the following general procedure:
# 150 milligrams of slices of swine adipose tissue were incubated at 37° C. for 2 hours with shaking in 3 milliliters of Krebs-Ringer bicarbonate solution containing one-half the normal calcium ion concentration, 60 micromoles of glucose, 0.5 micro-Curie of glucose-U^14 C, and 300 microunits of insulin, and 5% dimethyl sulfoxide (DMSO). The test compounds were added as a solution or suspension in DMSO and were present at a concentration of 100 micrograms per milliliter of the incubation mixture.
# The incubation was terminated by addition of 0.25 milliliter of 1 N sulfuric acid. The resulting mixture was extracted with a total of 25 milliliters of chloroform/methanol (2:1 v/v). The extracts were washed according to Folch et al. (J. Biol. Chem. 226, 497-509, (1957)), air dried, and counted in a liquid scintillation counter with 15 milliliters of counting fluid (two parts toluene containing 0.4% w/v New England Nuclear Omnifluor/1 part Triton X-100). The tests were conducted in triplicate and were accompanied by control tests in which all ingredients,proportions and conditions were the same except that no test compound was included. From the data obtained were calculated the percent inhibition of lipid synthesis by the test compounds in each case. The data obtained from the tests are set out in Table 1, as the percent inhibition of lipogenesis compared to the results obtained in the control tests wherein only the test compound was omitted.
row,Compound,Percent Inhibition (of lipogenesis compared to control) [%]
1,"CCOC(=O)C1COc2ccc(C(C)=NOC)cc2O1 (stereo not drawn) [Compound 3, Ethyl 2,3-dihydro-7-(1-(methoxyimino)ethyl)-1,4-benzodioxin-2-carboxylate]",52
2,"Ethyl 6(and 7)-(acetylamino)-2,3-dihydro-1,4-benzodioxin-2-carboxylate [Compound 4]",96
3,"Ethyl 6(and 7)-(2'-methyl-4'-thiazolyl)-2,3-dihydro-1,4-benzodioxin-2-carboxylate [Compound 6]",79
4,"Ethyl 7(and 6)-acetyl-2,3-dihydro-1,4-benzodioxin-2-carboxylate [Compound 1]",89
5,"Ethyl 2,3-dihydro-7(and 6)-(1-(hydroxyimino)ethyl)-1,4-benzodioxin-2-carboxylate [Compound 2]",94
6,"CCOC(=O)C1COc2ccc(C(=O)c3ccccc3)cc2O1 (stereo not drawn) [Compound 5, Ethyl 7-benzoyl-2,3-dihydro-1,4-benzodioxin-2-carboxylate]",69
